Source: patent publication US20150004110A1, “NOVEL ANTI-AGING AND DEPIGMENTING COSMETIC COMPOSITIONS” (DIVERCHIM, priority 2011, published 2015)

Test system: skin explants (abdominoplasty)
Experiment: Histological assessment of the general morphology of skin explants maintained in survival
Type: cell-based, human
Details: 2 μg/mL in DMSO, after 9 days of survival
Protocol: 1. Preparation of the explants • During abdominoplasty of a person, 45 skin explants were prepared. The explants were put in BEM medium (BIO-EC's Explants Medium) for survival at 37° C. in humid atmosphere, enriched with 5% CO2.
2. Application of the products • The solutions are prepared in DMSO from pure products, in order to obtain final concentrations of […] by incorporating an identical volume of 10 μl in each well and for each treatment. The treatment was carried out in the survival medium on days 0, 1, 2, 5 and 7.
3. Taking samples • On D0, the 3 explants of batch TO were taken and each explant was cut in two. One part was fixed in buffered formol for observation of the general morphology. The other was frozen and stored at −80° C. • On D5 and D9, 3 explants from each batch were taken and treated in the same way.
4. […]
5. Microscopic observations • The microscopic observations were carried out by light microscopy and fluorescence microscopy, using a Orthoplan-type Leica microscope, with ×25 objective. The images were recorded with a Sony DXC 390P tri CCD camera and stored using the Leica IM1000 data archiving software. • The general morphology was observed on sections in paraffin after staining with Masson trichrome, Goldner variant according to procedure MO-H-157. […]

SMILES: C[C@]12CC[C@H](O)CC1=CC[C@@H]1[C@@H]2CC[C@]2(C)C(=O)CC[C@@H]12 [(+)-dehydroisoandrosterone, reference compound]
- General morphology: epidermal structure and papillary dermis: does not alter the epidermal structure or the papillary dermis
